These results are taken from US20240279338A1, “Combination Treatment of Cancer” (Ares Trading S.A., priority 2021, published 2024).

For one assay, the system named is ADORA2A (A2A). Briefly: RNAseq gene expression in MC38 tumors. The format is in vivo, mice. As to conditions: bintrafusp alfa 24.6 mg/kg iv, Day 6 post treatment, vs isotype. As for the experimental part:
(§1) FIG. 4: Bintrafusp alfa increases expression of A2B in CD73h adenosine-rich 4T1 tumor model, but not in CD73^low adenosine-low MC38 tumor model. For the 4T1 tumor model, female BALB/c mice were inoculated with 2×10^5 4T1 cells into the right mammary fat pad. For the MC38 tumor model, female C57BL/6 mice were inoculated subcutaneously in the right flank with MC38 cells (1×10^6). Animals in both studies were randomized into the groups and treatments started when the average tumor size reached approximately 100-150 mm^3. For both models, there were 15 mice in each group. The animals were treated with isotype control (20 mg/kg, iv) or bintrafusp alfa (24.6 mg/kg, iv) on days 0, 1, and 2. Tumors were harvested on Day 6 post treatment start, flash frozen, and used for RNASeq analysis. Gene expression levels of (A) NT5E, (B) ADORA2A (A2A), and (C) ADORA2B (A2B) are presented as mean±SEM. P-values were calculated using two-way ANOVA.
(§2) To determine whether bintrafusp alfa treatment modulates expression of A2A or A2B receptors or NT5E (gene encoding CD73), mice with established 4T1 and MC38 tumors were treated with 20 mg/kg isotype antibody or 24.6 mg/kg bintrafusp alfa.

A further assay concerns NT5E (CD73). Briefly: RNAseq gene expression in MC38 tumors. It counts as in vivo, mice. Particulars: bintrafusp alfa 24.6 mg/kg iv, Day 6 post treatment, vs isotype. As for the experimental part:
as §1, §2

In another assay the test system is MBT2 cells. Briefly: CD73low MBT2 syngeneic tumor model, tumor growth. The format is in vivo. Particulars: MBT2, female C3H mice; Day 14; Compound A 300 mg/kg po BID; bintrafusp alfa 24.6 mg/kg iv days 0, 3, 6. Here is the method: Female C3H mice were inoculated with 1×10^6 MBT2 cells in the right upper flank and were treated with Compound A (300 mg/kg po, BID), bintrafusp alfa (24.6 mg/kg iv, days 0, 3, 6), Compound A+bintrafusp alfa, when average tumor volume reached approximately 53 mm^3. Vehicle (po, BID) and isotype control antibody injections (20 mg/kg iv, days 0, 3, 6) were used as controls. (A) Average tumor volumes with SEM, and (B) individual tumor volumes are presented. Tumor volume data were analyzed using two-way ANOVA followed by Tukey's multiple comparison test.
(§3) To determine whether combined treatment with the dual A2A/A2B receptor inhibitor “Compound A” ((S)-7-Oxa-2-aza-spiro[4.5]decane-2-carboxylic acid [7-(3,6-dihydro-2H-pyran-4-yl)-4-methoxy-thiazolo[4,5-c]pyridin-2-yl]-amide) and bintrafusp alfa can inhibit tumor growth in either CD73^hi or CD73^low models, tumor growth was monitored in […] syngeneic tumor models. Animals were inoculated with either CD73^hi tumor cells (4T1, E0771, or EMT6) or with CD73^low MC38, H22 or MBT2 tumor cells. For all tumor models, animals were treated with either 1) vehicle and isotype, 2) Compound A and isotype, 3) vehicle and bintrafusp alfa, or 4) Compound A and bintrafusp alfa. […]

In the next assay the test system is H22 cells. Kind of assay: CD73low H22 syngeneic tumor model, tumor growth. The format is in vivo. Particulars: H22, female BALB/c mice; Day 16 post treatment initiation; Compound A 300 mg/kg po BID; bintrafusp alfa 24.6 mg/kg iv days 0, 3, 6. Here is the method:
Female BALB/c mice were inoculated with 1×10^6 H22 cells in the right upper flank and were treated with Compound A (300 mg/kg po, BID), bintrafusp alfa (24.6 mg/kg iv, days 0, 3, 6), Compound A+bintrafusp alfa, when average tumor volume reached approximately 55 mm3. Vehicle (po, BID) and isotype control antibody injections (20 mg/kg iv, days 0, 3, 6) were used as controls. (A) Average tumor volumes with SEM, and (B) individual tumor volumes are presented. Tumor volume data were analyzed using two-way ANOVA followed by Tukey's multiple comparison test.
as §3

Another assay has as its system EMT6 cells. Briefly: CD73hi EMT6 syngeneic tumor model, tumor growth. It counts as in vivo, mice. Particulars: Day 10 post treatment initiation, Compound A 300 mg/kg po BID alone. Here is the method: Female BALB/c mice were inoculated with 2.5×10^5 EMT6 cells into the right mammary fat pad and were treated with Compound A (300 mg/kg po, BID), bintrafusp alfa (24.6 mg/kg iv, days 0, 3, 6), Compound A+bintrafusp alfa, when average tumor volume reached approximately 60 mm^3. Vehicle (po, BID) and isotype control antibody injections (20 mg/kg iv, days 0, 3, 6) were used as controls. (A) Average tumor volumes with SEM, and (B) individual tumor volumes are presented. Tumor volume data were analyzed using two-way ANOVA followed by Tukey's multiple comparison test.
as §3

Take “bintrafusp alfa: anti-PD-L1:TGFβRII fusion protein, CAS 1918149-01-5; human IgG1 antibody against PD-L1 fused to extracellular domain of human TGF-β receptor II”: the “expression of A2A” value in the assay with ADORA2A (A2A) is “no changes”. For the same compound, the “expression of NT5E (CD73)” value with NT5E (CD73) is listed as “no changes”. The “tumor growth inhibition, T/C” value in the assay with MBT2 cells worked out at 29.9%; in the assay on H22 cells, 34.4%.

Consider `COc1ncc(C2=CCOCC2)c2sc(NC(=O)N3CC[C@@]4(CCCOC4)C3)nc12` [Compound A, (S)-7-Oxa-2-aza-spiro[4.5]decane-2-carboxylic acid [7-(3,6-dihydro-2H-pyran-4-yl)-4-methoxy-thiazolo[4,5-c]pyridin-2-yl]-amide], for which the “tumor growth inhibition” value in the assay with EMT6 cells is “did not show tumor growth inhibition”.
